The text below walks through data of US11802110B2, “2-amino-N-(arylsulfinyl)-acetamide compounds as inhibitors of bacterial aminoacyl-tRNA synthetase” (priority 2016, dated 2023).

Molecules are shown by their SMILES. In brackets after ≈: the same amount, converted by molar mass. Where two headings read alike, the source gives them in different places.

Common to all, as to format: cell-based
Series [1] relates to Escherichia coli ATCC 25922. The series is described as follows: Study 4 - MIC by broth micro-dilution (CLSI). The method, then: (§1) Minimum Inhibitory Concentrations (MICs) were determined by the broth micro-dilution method performed according to Clinical Laboratory Standards Institute guidelines. For testing, 5 mg/mL DMSO solutions were prepared by dissolving solids in DMSO. Standard antibiotics were prepared according to CLSI guidelines as 5 mg/mL stock solutions. Upon DMSO stock solutions preparation, the working solutions in MH media were prepared by adding 38.4 μL of stock solution to 1461.6 μL of MH media. Out of these working solutions 100 μL were transferred to wells in the third column of 96-well assay plates. Assay plates were previously filled with 50 μL of MH media in all wells except for the wells in the third column. Upon compounds and antibiotics addition, 50 μL was transferred from the third to the fourth column, then from the fourth to the fifth and so on.
(§2) MIC value was determined by visual inspection of bacterial growth within 96-well plates. The first column in which there was no visible growth of bacteria was determined as MIC value for compound or antibiotic tested in that particular row. ATCC strains were used as reference strains for which there is a determined value of MIC values for standard antibiotics. The assay is considered valid when MIC values for standard antibiotics are within CLSI designated range for ATCC strain tested.
For orientation: Dilution methods test growth across graded concentrations, often in twofold steps.

Series [2] deals with Klebsiella pneumoniae ATCC 700603. The series is described as follows: Study 4 - MIC by broth micro-dilution (CLSI). The protocol: as §1, §2
In series [3] the test system is Enterobacter cloacae B1966 clinical isolate. The series is described as follows: Study 4 - MIC by broth micro-dilution (CLSI). The method, then: as §1, §2
The test system of series [4] is Pseudomonas aeruginosa ATCC 27853. As to the kind of experiment: Study 4 - MIC by broth micro-dilution (CLSI). The method, then:
as §1, §2

Series [5] has as its system Acinetobacter baumannii B1931 clinical isolate. The series is described as follows: Study 4 - MIC by broth micro-dilution (CLSI). The method, then: as §1, §2
For series [6], the system named is Haemophilus influenzae ATCC 49247. The series is described as follows: Study 4 - MIC by broth micro-dilution (CLSI). Conditions: G = H. influenzae ATCC 49247. The protocol:
as §1, §2

In series [7] the test system is Escherichia coli ATCC 25922 TolC deficient mutant (E. coli EFFLUX del). The series is described as follows: microbe, parasite or virus in culture. The method, then: as §1, §2
The nature of series [8]: Human cell viability (cytotoxicity), ATP levels by CellTiter-Glo. Conditions: HepG2 cells (ATCC HB-8065), 24 hours incubation, read-out: IC50 (μg/mL), Cytotoxicity in HepG2 ATCC HB-8065 Cell Line. The protocol:
Compounds were assessed for potential non-specific cytotoxic effects against a human hepatic cell line (HepG2 ATCC HB-8065). 96-well plates were seeded with HepG2 cells in concentration of 15,000 cells per well in 100 μL of MEM growth media completed with 1% NEAA and 1% sodium pyruvate. Border wells were filled with 100 μL of sterile PBS. Two days upon cells incubation, the compounds were added. Compound dilutions were prepared in 96-well V-bottom plate in pure DMSO. Growth media from 5 plates were aspirated and replaced with 98.7 μL of fresh growth media. 1.28 μL of compounds prepared in V-bottom plates were transferred with multichannel pipette into test plates (78.1× dilution). Final DMSO concentration was 1.28% per well. In control wells, 1.28 μL of DMSO was added in 98.7 μL of media. Compounds were tested in duplicates. Cells were incubated with compounds for 24 hours when cell viability was assessed by measuring ATP levels. ATP levels were measured by adding 50 μL of CellTiter-Glo reagent to each well and after 5 minutes of incubation luminescence was measured with SpectraMax i3. The potential effect of tested compounds on cell viability was determined by comparing the signal obtained in presence of different concentrations of the compounds with those obtained in the presence of DMSO only. The potential effects were then calculated and presented as IC50 values (μg/mL).
In general terms: In ATP-based viability assays light output follows the ATP content of the culture.

Setting [9] is: Klebsiella pneumoniae, ATCC700603.
Setting [10] is: Pseudomonas aeruginosa, ATCC27853.
Setting [11] is: Haemophilus influenzae, ATCC49247, read-out: MIC.

Regarding `CC(C)CC(N)C(=O)N[S+]([O-])c1cccc(-c2ccn(C)n2)c1` (stereo not shown) [4.26], the MIC in series [1] (Escherichia coli, ATCC25922) was 64 µg/mL (≈ 191 µM); in series [2] (setting [9]), > 64 µg/mL; in series [3] (Enterobacter cloacae), > 64 µg/mL; in series [4] (setting [10]), > 64 µg/mL; in series [5] (Acinetobacter baumannii) it was > 64 µg/mL; in series [6] (setting [11]), > 64 µg/mL. In addition, in series [7] (Escherichia coli, ATCC25922), the MIC was found to be 64 µg/mL (≈ 191 µM). For the same molecule, in series [8], the IC50 at 24 h is > 64 µg/mL.
With `CC(C)CC(N)C(=O)N[S+]([O-])c1ccccc1C#N` (stereo not shown) [4.30], the MIC in series [1] (Escherichia coli, ATCC25922) was 16 µg/mL (≈ 57.3 µM); in series [2] (setting [9]) it was 32 µg/mL (≈ 115 µM); in series [3] (Enterobacter cloacae), 32 µg/mL (≈ 115 µM); in series [4] (setting [10]), 32 µg/mL (≈ 115 µM); in series [5] (Acinetobacter baumannii) it was 8 µg/mL (≈ 28.6 µM); in series [6] (setting [11]) it was 8 µg/mL (≈ 28.6 µM). The MIC in series [7] (Escherichia coli, ATCC25922) turned out to be 16 µg/mL (≈ 57.3 µM). In addition, in series [8], the IC50 at 24 h worked out at 32.5 µg/mL (≈ 116 µM).
Turning to `CC(C)CC(N)C(=O)N[S+]([O-])c1cc(Cl)cc(Cl)c1` (stereo not shown) [4.36], the MIC in series [1] (Escherichia coli, ATCC25922) is 64 µg/mL (≈ 198 µM); in series [2] (setting [9]), > 64 µg/mL; in series [3] (Enterobacter cloacae), > 64 µg/mL; in series [4] (setting [10]), > 64 µg/mL; in series [5] (Acinetobacter baumannii), > 64 µg/mL; in series [6] (setting [11]), > 64 µg/mL. This molecule also had an MIC in series [7] (Escherichia coli, ATCC25922) of 64 µg/mL (≈ 198 µM). The IC50 at 24 h in series [8] was found to be 44 µg/mL (≈ 136 µM).
`CC(C)CC(N)C(=O)N[S+]([O-])c1ccc(F)c(Cl)c1` (stereo not shown) [4.37]: the MIC in series [1] (Escherichia coli, ATCC25922) is 8 µg/mL (≈ 26.1 µM); in series [2] (setting [9]), > 64 µg/mL; in series [3] (Enterobacter cloacae) it was 64 µg/mL (≈ 209 µM); in series [4] (setting [10]) it was > 64 µg/mL; in series [5] (Acinetobacter baumannii) it was 64 µg/mL (≈ 209 µM); in series [6] (setting [11]) it was 32 µg/mL (≈ 104 µM). The MIC in series [7] (Escherichia coli, ATCC25922) came to 8 µg/mL (≈ 26.1 µM). Besides, the IC50 at 24 h in series [8] is > 64 µg/mL.
Regarding `CC(C)(O/N=C(\C(=O)N[C@@H]1C(=O)N2C(C(=O)[O-])=C(C[n+]3ccccc3)CS[C@H]12)c1csc(N)n1)C(=O)O` [Ceftazidime], the MIC was 0.25 µg/mL (≈ 0.457 µM) in series [1] (A = E. coli ATCC 25922); >64 µg/mL in series [2] (D = KI. pneumoniae ATCC 700603); 0.5 µg/mL (≈ 0.915 µM) in series [3] (C = Enterobacter cloacae B1966); >64 µg/mL in series [4] (E = P. aeruginosa ATCC 27853); 2 µg/mL (≈ 3.66 µM) in series [5] (F = A. baumannii B1931); 16 µg/mL (≈ 29.3 µM) in series [6]. Also, in series [7] (B = E. coli EFFLUX del), the MIC was 0.25 µg/mL (≈ 0.457 µM).
`C[C@@H](O)[C@H]1C(=O)N2C(C(=O)O)=C(S[C@@H]3CN[C@H](C(=O)N(C)C)C3)[C@H](C)[C@H]12` [Meropenem]: the MIC in series [1] (A = E. coli ATCC 25922) is 0.5 µg/mL (≈ 1.3 µM); in series [2] (D = KI. pneumoniae ATCC 700603), 0.5 µg/mL (≈ 1.3 µM); in series [3] (C = Enterobacter cloacae B1966), 0.5 µg/mL (≈ 1.3 µM); in series [4] (E = P. aeruginosa ATCC 27853) it was >64 µg/mL; in series [5] (F = A. baumannii B1931) it was 8 µg/mL (≈ 20.9 µM); in series [6], 4 µg/mL (≈ 10.4 µM). This molecule returned an MIC in series [7] (B = E. coli EFFLUX del) of 0.5 µg/mL (≈ 1.3 µM).
